This passage reports IC50 results from patent US20240417410A1, “TRICYCLIC COMPOUNDS FOR THE TREATMENT OF CANCER” (Hoffmann-La Roche Inc., priority 2023, published 2024).

In assay [1] the test system is NCI-H358 cells (KRAS G12C). In words: Cell viability assay (Cell Counting Kit-8, 3-day). Conditions: Homo sapiens, NCI-H358, 72 h, NCI-H358, 72 hrs incubation. The assay is classed as cell-based, human. In outline:
(§1)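 Cells seeded at 5,000/well (NCI-H358) or 2,000/well (AGS, SW620), treated next day at 0.5% final DMSO for 72 h. Viability read by CCK-8 (OD450 minus OD650) after 2 h; IC50 from 4-parameter sigmoidal fit.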
Background: Tetrazolium assays rely on reduction of a dye to a coloured formazan, in cell work by metabolically active cells.

Assay [2] deals with AGS cells (KRAS G12D). The assay is described as follows: Cell viability assay (Cell Counting Kit-8, 3-day). The assay is classed as cell-based, human. Conditions: Homo sapiens, 72 h, 72 hrs incubation. Summed up: as §1
Assay [3] has as its system SW620 cells (KRAS G12V). The assay is described as follows: Cell viability assay (Cell Counting Kit-8, 3-day). The assay is classed as cell-based, human. Conditions: Homo sapiens, SW-620; SW620, 72 hrs incubation. In outline:
as §1

Assay [4] has as its system phosphorylation of ERK, KRAS G12D in AGS cells. The assay is described as follows: pERK inhibition assay. The assay is classed as cell-based. Conditions: Homo sapiens, AGS, 4 h. Summed up: (§2)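 NCI-H358 (KRAS G12C), AGS (G12D) and SW620 (G12V) cells plated overnight, then treated with compound for 4 h in 0.5% DMSO. After fixing and methanol permeabilisation, phospho-ERK was detected by in-cell ELISA (HRP/TMB, OD450). IC50 from a 4-parameter sigmoidal fit.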

In assay [5] the test system is phosphorylation of ERK, KRAS G12C in NCI-H358 cells. In words: pERK inhibition assay. The assay is classed as cell-based. Conditions: Homo sapiens, NCI-H358, 4 h. Summed up:
as §2

Assay [6] deals with phosphorylation of ERK, KRAS G12V in SW620. In words: pERK inhibition assay. The assay is classed as cell-based. Conditions: Homo sapiens, SW-620, 4 h, SW620 cells. Summed up: as §2
Assay [7] has as its target KRAS G12C-BRAF complex (Homo sapiens (Human), UniProt P01116+P62937, G12C). The assay is described as follows: KRAS-BRAF with CYPA (500 nM) interaction assay (TR-FRET, Example 136). Conditions: KRAS G12C-BRAF disruption. The assay is classed as biochemical. (In general: TR-FRET usually uses a lanthanide donor and a delayed reading to cut background.)

Chain of KRAS G12C-BRAF complex (P01116-2 other isoform, or with tags, fused parts or gaps G12C): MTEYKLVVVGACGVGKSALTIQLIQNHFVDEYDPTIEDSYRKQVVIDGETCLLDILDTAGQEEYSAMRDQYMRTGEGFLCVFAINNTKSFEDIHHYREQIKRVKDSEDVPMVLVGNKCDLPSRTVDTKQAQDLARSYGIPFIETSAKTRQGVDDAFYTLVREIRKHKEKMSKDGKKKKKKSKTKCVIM
Chain of KRAS G12C-BRAF complex (P62937 whole entry): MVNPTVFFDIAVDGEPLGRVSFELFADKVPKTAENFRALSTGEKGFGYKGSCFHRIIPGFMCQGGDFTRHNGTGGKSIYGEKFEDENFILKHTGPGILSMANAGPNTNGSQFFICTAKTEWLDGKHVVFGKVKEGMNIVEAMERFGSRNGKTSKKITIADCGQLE

With `CO[C@@H](C)c1ncc(N2CCN3CCOC[C@@H]3C2)cc1-c1c2c3cc(cc4c3n1CCC4)-c1csc(n1)C[C@H](NC(=O)[C@H]1[C@@H]3COC[C@@H]31)C(=O)N1CCC[C@H](N1)C(=O)OCC(C)(C)C2` (atropisomer, axis not shown; (M)) [Example 40, (1S,5R,6r)-N-[(7S,13S)-(20M)-20-[5-[(9αS)-3,4,6,7,9,9a-hexahydro-1H-pyrazino[2,1-c][1,4]oxazin-8-yl]-2-[(1S)-1-methoxyethyl]-3-pyridyl]-17,17-dimethyl-8,14-dioxo-15-oxa-4-thia-9,21,30,31-tetrazahexacyclo[23.3.1.1^2,5.1^9,13.0^19,27.0^21,26]hentriaconta-1 (28),2,5 (31),19,25 (29),26-hexaen-7-yl]-3-oxabicyclo[3.1.0]hexane-6-carboxamide], the half-maximal inhibitory concentration (IC50) (in general, the concentration needed to halve the response being measured) was 3 nM in assay [1]; 11.8 nM in assay [2]; 0.8 nM in assay [3]; 5.6 nM in assay [4]; 0.6 nM in assay [5]; 0.4 nM in assay [6]. In assay [7], this molecule displayed an IC50 of 13 nM.

Turning to `CO[C@@H](C)c1ncc(N2CCN3CCOC[C@@H]3C2)cc1-c1c2c3cc(cc4c3n1CCC4)-c1csc(n1)C[C@H](NC(=O)[C@H]1C[C@@H]1C(F)F)C(=O)N1CCC[C@H](N1)C(=O)OCC(C)(C)C2` (atropisomer, axis not shown; (M)) [Example 41, (1S,2S)-N-[(7S,13S)-(20M)-20-[5-[(9αS)-3,4,6,7,9,9a-hexahydro-1H-pyrazino[2,1-c][1,4]oxazin-8-yl]-2-[(1S)-1-methoxyethyl]-3-pyridyl]-17,17-dimethyl-8,14-dioxo-15-oxa-4-thia-9,21,30,31-tetrazahexacyclo[23.3.1.1^2,5.1^9,13.0^19,27.0^21,26]hentriaconta-1 (28),2,5 (31),19,25 (29),26-hexaen-7-yl]-2-(difluoromethyl)cyclopropanecarboxamide], the IC50 came to 3.6 nM in assay [1]; 14 nM in assay [2]; 0.9 nM in assay [3]; 4.8 nM in assay [4]; 0.4 nM in assay [5]; 0.4 nM in assay [6]. In addition, the IC50 in assay [7] is 23.8 nM.

Take `CO[C@@H](C)c1ncc(N2CCN(C)CC2)cc1-c1c2c3cc(cc4c3n1CCC4)-c1csc(n1)C[C@H](NC(=O)[C@@H]1[C@@H]3COC[C@@H]31)C(=O)N1CCC[C@H](N1)C(=O)OCC(C)(C)C2` (atropisomer, axis not shown; (M)) [Example 42, (1R,5S,6s)-N-[(7S,13S)-(20M)-20-[2-[(1S)-1-methoxyethyl]-5-(4-methylpiperazin-1-yl)-3-pyridyl]-17,17-dimethyl-8,14-dioxo-15-oxa-4-thia-9,21,30,31-tetrazahexacyclo[23.3.1.1^2,5.1^9,13.0^19,27.0^21,26]hentriaconta-1 (28),2,5 (31), 19,25 (29),26-hexaen-7-yl]-3-oxabicyclo[3.1.0]hexane-6-carboxamide]: the half-maximal inhibitory concentration (IC50) in assay [1] was 5.4 nM; in assay [2], 22.4 nM; in assay [3], 1.3 nM; in assay [4], 8.1 nM; in assay [5], 0.9 nM; in assay [6], 1.4 nM. In assay [7], the IC50 came to 20.5 nM.

Consider `CO[C@@H](C)c1ncc(N2CCN(C)CC2)cc1-c1c2c3cc(cc4c3n1CCO4)-c1csc(n1)C[C@H](NC(=O)[C@H]1[C@H](C)[C@@H]1C)C(=O)N1CCC[C@H](N1)C(=O)OCC(C)(C)C2` (atropisomer, axis not shown; (M)) [Example 45, (1r,2S,3R)-N-[(7S,13S)-(20M)-20-[2-[(1S)-1-methoxyethyl]-5-(4-methylpiperazin-1-yl)-3-pyridyl]-17,17-dimethyl-8,14-dioxo-15,24-dioxa-4-thia-9,21,30,31-tetrazahexacyclo[23.3.1.1^2,5.1^9,13.0^19,27.0^21,26]hentriaconta-1 (28),2,5 (31),19,25 (29),26-hexaen-7-yl]-2,3-dimethyl-cyclopropanecarboxamide], for which the IC50 in assay [1] was found to be 1.8 nM; in assay [2], 3.6 nM; in assay [3] it was 0.2 nM; in assay [4], 2.1 nM; in assay [5], 0.6 nM; in assay [6], 0.2 nM. The same molecule came in with an IC50 in assay [7] of 14.1 nM.

On to `CO[C@@H](C)c1ncc(N2CCN(C)CC2)cc1-c1c2c3cc(cc4c3n1CCC4)-c1csc(n1)C[C@H](NC(=O)[C@H]1C[C@@H]1c1cncnc1)C(=O)N1CCC[C@H](N1)C(=O)OCC(C)(C)C2` (atropisomer, axis not shown; (M)) [Example 47, (1S,2S)-N-[(7S,13S)-(20M)-20-[2-[(1S)-1-methoxyethyl]-5-(4-methylpiperazin-1-yl)-3-pyridyl]-17,17-dimethyl-8,14-dioxo-15-oxa-4-thia-9,21,30,31-tetrazahexacyclo[23.3.1.1^2,5.1^9,13.0^19,27.0^21,26]hentriaconta-1 (28),2,5 (31), 19,25 (29),26-hexaen-7-yl]-2-pyrimidin-5-yl-cyclopropanecarboxamide], for which the IC50 stood at 2.5 nM in assay [1]; 10.2 nM in assay [2]; 0.9 nM in assay [3]; 4.8 nM in assay [4]; 1.2 nM in assay [5]; 1.4 nM in assay [6]. The molecule further registered an IC50 in assay [7] of 21.2 nM.

Regarding `CO[C@@H](C)c1ncc(N2CCN(C)CC2)cc1-c1c2c3cc(cc4c3n1CCC4)-c1csc(n1)C[C@H](NC(=O)[C@H]1[C@@H]3CC(F)(F)C[C@@H]31)C(=O)N1CCC[C@H](N1)C(=O)OCC(C)(C)C2` (atropisomer, axis not shown; (M)) [Example 48, (1S,5R)-3,3-difluoro-N-[(7S,13S)-(20M)-20-[2-[(1S)-1-methoxyethyl]-5-(4-methylpiperazin-1-yl)-3-pyridyl]-17,17-dimethyl-8,14-dioxo-15-oxa-4-thia-9,21,30,31-tetrazahexacyclo[23.3.1.1^2,5.1^9,13.0^19,27.0^21,26]hentriaconta-1 (28),2,5 (31), 19,25 (29),26-hexaen-7-yl]bicyclo[3.1.0]hexane-6-carboxamide], the concentration for half-maximal inhibition (IC50) is 9.5 nM in assay [1]; 26.5 nM in assay [2]; 1.7 nM in assay [3]; 10.1 nM in assay [4]; 1.2 nM in assay [5]; 1 nM in assay [6]. In addition, it took 4.4 nM to reach half-maximal inhibition in assay [7] (IC50).

In the case of `CO[C@@H](C)c1ncc(N2CCN3CCCC[C@@H]3C2)cc1-c1c2c3cc(cc4c3n1CCC4)-c1csc(n1)C[C@H](NC(=O)[C@H]1C[C@@H]1C)C(=O)N1CCC[C@H](N1)C(=O)OCC(C)(C)C2` (atropisomer, axis not shown; (M)) [Example 49, (1S,2S)-N-[(7S,13S)-(20M)-20-[5-[(9αR)-1,3,4,6,7,8,9,9a-octahydropyrido[1,2-a]pyrazin-2-yl]-2-[(1S)-1-methoxyethyl]-3-pyridyl]-17,17-dimethyl-8,14-dioxo-15-oxa-4-thia-9,21,30,31-tetrazahexacyclo[23.3.1.1^2,5.1^9,13.0^19,27.0^21,26]hentriaconta-1 (28),2,5 (31), 19,25 (29),26-hexaen-7-yl]-2-methyl-cyclopropanecarboxamide], the concentration for half-maximal inhibition (IC50) in assay [1] is 9.7 nM; in assay [2], 29.1 nM; in assay [3], 1.7 nM; in assay [4], 13.7 nM; in assay [5], 2.4 nM; in assay [6], 1.3 nM. The half-inhibitory concentration (IC50) in assay [7] was 17.5 nM.

Consider `CO[C@@H](C)c1ncc(N2CCN(C)CC2)cc1-c1c2c3cc(cc4c3n1CCC4)-c1csc(n1)C[C@H](NC(=O)[C@H]1C[C@@H]1c1ccncn1)C(=O)N1CCC[C@H](N1)C(=O)OCC(C)(C)C2` (atropisomer, axis not shown; (M)) [Example 50, (1S,2S)-N-[(7S,13S)-(20M)-20-[2-[(1S)-1-methoxyethyl]-5-(4-methylpiperazin-1-yl)-3-pyridyl]-17,17-dimethyl-8,14-dioxo-15-oxa-4-thia-9,21,30,31-tetrazahexacyclo[23.3.1.1^2,5.1^9,13.0^19,27.0^21,26]hentriaconta-1 (28),2,5 (31), 19,25 (29),26-hexaen-7-yl]-2-pyrimidin-4-yl-cyclopropanecarboxamide], for which the IC50 in assay [1] was 24.1 nM; in assay [2] it was 72.6 nM; in assay [3], 3.8 nM; in assay [4], 20.1 nM; in assay [5], 3.5 nM; in assay [6], 2.4 nM. This molecule gave a 50% inhibitory concentration (IC50) in assay [7] of 22 nM.
